Residues, ends and D or L forms follow the SMILES beside them.
Legend:
[1] = molecular target: T1, human NMUR2 receptor (Homo sapiens, UniProt Q9GZQ4); experiment: IP1 Gq HTRF assay, activation of human NMUR2 in human plasma; type: cell-based; parameters: expressed in transfected cells; host or cells: CHO-K1; settings: CHO-K1 cells expressing human NMUR2, 100% human plasma; read-out: EC50 (hNMUR2) human plasma
Procedure, shortened: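 CHO-K1 cells stably expressing human NMUR2 exposed to peptide agonists (8-point dose-response) in 100% human plasma with 50 mM LiCl, 1% DMSO, for 1 h at 37° C. IP1 accumulation read by HTRF competition (665/620 nm ratio). EC50 from 4-parameter sigmoidal fit.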

[2] = molecular target: T1, human NMUR2 receptor; experiment: Radioligand binding competition assay (RLB), human NMUR2 receptor binding (SPA, [125I]-Neuromedin U-25); parameters: host or cells: CHO-K1; settings: CHO-K1 hNMUR2 cell membranes, 4 hours at RT
Description: Example 1: Radioligand Binding Competition Assay (RLB) Human NMUR2 Receptor Binding
The test is based on membranes prepared from a Human NMUR2/Apoaequorin Stable Cell Line (Creative Biogene, Cat. No. CSC-RG1309).
Cell Line Description: CHO-NMUR2 cell line is clonally derived from a CHO-K1 cell line, which has been transfected with a bicistronic expression plasmid containing the sequence coding for the human neuromedin U receptor 2 (AF242874.1). MOSAIC-ID: CL16550616.
Membrane preparation: Cells were broken by nitrogen cavitation (900 psi, 1 hour). Intact cells were removed by centrifugation (400 rcf (relative centrifugal force), 10 minutes, 4° C.) before the crude membrane fraction was collected by ultracentrifugation (20.000 rcf, 1 hour, 4° C.).
2) Human NMUR2 Receptor Binding Assay (Radioligand: [125I]-Neuromedin U-25 (Human))
In this Scintillation Proximity Assay (SPA) design, the membranes immobilize directly to the PVT-WGA-PEI type A beads (polyethyleneimine treated polyvinyltoluene beads coupled to wheatgerm agglutinin, Perkin Elmer) via interactions of wheat germ agglutinate and glycosylated membrane structures. Thereby the radioactively la-belled ligand, bound to NMUR2 receptors on the membrane, comes in close proximity to the solid scintillator of the PVT bead. Radioactive human neuromedin U-25 then stimulates the scintillant to emit light. In contrast, radioligand not bound to the receptor is too distant from the bead to elicit a signal.
For the Scintillation Proximity Assay the CHO-K1 hNMUR2 cell membranes and SPA-beads are diluted to concentrations, which assure a robust signal to background ratio. The SPA incubation buffer consists of 25 mM Hepes (pH=7.0), 5 mM MgCl2, 1 mM CaCl2, 10 ug/mL Saponine and 0.1% bovine serum albumin and is used for all dilutions.
Final assay setup in 96-well plate: 20 μL of 10× test compound dilutions+40 μL of 5× [125l]-Neuromedin U-25 (1× approx. 30 pM; 2000 μCi/mmol)+60 μL membrane dilution (approx. 2.5 μg membrane protein)+80 μL SPA bead dilution (0.75 mg).
The assay is incubated for 4 hours at RT, including controls for specific binding where no displacer is added and non-specific binding by adding unlabeled hNMU-25 at 100 nM. Bound radioactivity is determined by scintillation counting (MicroBeta Trilux 1450, Perkin Elmer, detection of 125I decay). […] The system assumes one binding site with no relevant radioligand depletion (<10%) and that the binding is reversible and at equilibrium.

T1 sequence (Q9GZQ4 whole entry): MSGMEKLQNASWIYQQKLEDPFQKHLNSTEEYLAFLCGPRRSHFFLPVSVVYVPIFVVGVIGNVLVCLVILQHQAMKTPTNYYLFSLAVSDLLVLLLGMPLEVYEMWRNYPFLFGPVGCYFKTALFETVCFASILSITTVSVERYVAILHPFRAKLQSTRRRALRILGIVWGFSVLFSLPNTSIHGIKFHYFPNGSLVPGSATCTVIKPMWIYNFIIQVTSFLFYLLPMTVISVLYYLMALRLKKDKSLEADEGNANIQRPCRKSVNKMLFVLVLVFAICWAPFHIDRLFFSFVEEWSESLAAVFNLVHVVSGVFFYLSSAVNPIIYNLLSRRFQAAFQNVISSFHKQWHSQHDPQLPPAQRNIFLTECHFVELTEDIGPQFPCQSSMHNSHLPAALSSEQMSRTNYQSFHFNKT

| SMILES | EC50 [1] [µM] | Ki [2] [µM] |
| --- | --- | --- |
| CCCC[C@H](NC(=O)[C@H](CC(C)C)N(C)C(=O)[C@H](Cc1ccccc1)NC(=O)[C@H](Cc1ccc(O)cc1)NC(=O)CN1CCN(CCNC(=O)CN(C)C(=O)CN(C)C(=O)CN(C)C(=O)CN(C)C(=O)CN(C)C(=O)CN(C)C(=O)CN(C)C(=O)CN(C)C(=O)CN(C)C(=O)CN(C)C(=O)CN(C)C(=O)CN(C)C(=O)CC[C@H](NC(=O)CC[C@H](NC(=O)CC[C@H](NC(=O)CCCCCCCCCCCCCCCCCCC(=O)O)C(=O)O)C(=O)O)C(=O)O)CC1)C(=O)N[C@@H](CCCNC(=N)N)C(=O)N1CCC[C@H]1C(=O)N[C@@H](CCCNC(=N)N)C(=O)NCC(N)=O [Compound 6, C20DA-gGlu3-Sar12-AEPipAc-Tyr-Phe-NMeLeu-Nle-Arg-Pro-Arg-Gly-NH2] | 0.0069 | 0.0101 |
| CCCC[C@H](NC(=O)[C@H](CC(C)C)N(C)C(=O)[C@H](Cc1ccccc1)NC(=O)[C@H](Cc1ccc(O)cc1)NC(=O)CN1CCN(CCNC(=O)CN(C)C(=O)CN(C)C(=O)CN(C)C(=O)CN(C)C(=O)CN(C)C(=O)CN(C)C(=O)CN(C)C(=O)CN(C)C(=O)CN(C)C(=O)CN(C)C(=O)CN(C)C(=O)CN(C)C(=O)CN(C)C(=O)CN(C)C(=O)CN(C)C(=O)CC[C@H](NC(=O)CC[C@H](NC(=O)CC[C@H](NC(=O)CCCCCCCCCCCCCCCCC(=O)O)C(=O)O)C(=O)O)C(=O)O)CC1)C(=O)N[C@@H](CCCN)C(=O)N(C)[C@@H](C)C(=O)N[C@@H](CCCNC(=N)N)C(=O)NCC(N)=O [Compound 22, C18DA-gGlu3-Sar15-AEPipAc-Tyr-Phe-NMeLeu-Nle-Orn-NMeAla-Arg-Gly-NH2] (HELM PEPTIDE1{[O=C(O)CCCCCCCCCCCCCCCCC(=O)[*:2]].[gGlu].[gGlu].[gGlu].[Sar].[Sar].[Sar].[Sar].[Sar].[Sar].[Sar].[Sar].[Sar].[Sar].[Sar].[Sar].[Sar].[Sar].[Sar].[O=C(CN1CCN(CCN[*:1])CC1)[*:2]].Y.F.[meL].[Nle].[Orn].[meA].R.G.[am]}$$$$V2.0) | 0.0108 | 0.0458 |
| CCCC[C@H](NC(=O)[C@H](CC(C)C)N(C)C(=O)[C@H](Cc1ccccc1)NC(=O)[C@H](Cc1ccc(O)cc1)NC(=O)CN1CCN(CCNC(=O)CN(C)C(=O)CN(C)C(=O)CN(C)C(=O)CN(C)C(=O)CN(C)C(=O)CN(C)C(=O)CN(C)C(=O)CN(C)C(=O)CN(C)C(=O)CC[C@H](NC(=O)CC[C@H](NC(=O)CC[C@H](NC(=O)CCCCCCCCCCCCCCCCCCC(=O)O)C(=O)O)C(=O)O)C(=O)O)CC1)C(=O)N[C@@H](CCCNC(=N)N)C(=O)N1CCC[C@H]1C(=O)N[C@@H](CCCNC(=N)N)C(=O)NCC(N)=O [Compound 65, C20DA-gGlu3-Sar9-AEPipAc-Tyr-Phe-NMeLeu-Nle-Arg-Pro-Arg-Gly-NH2] (HELM PEPTIDE1{[O=C(O)CCCCCCCCCCCCCCCCCCC(=O)[*:2]].[gGlu].[gGlu].[gGlu].[Sar].[Sar].[Sar].[Sar].[Sar].[Sar].[Sar].[Sar].[Sar].[O=C(CN1CCN(CCN[*:1])CC1)[*:2]].Y.F.[meL].[Nle].R.P.R.G.[am]}$$$$V2.0) | 0.0117 | 0.0253 |
| CCCC[C@H](NC(=O)[C@H](CC(C)C)N(C)C(=O)[C@H](Cc1ccccc1)NC(=O)[C@H](Cc1ccc(O)cc1)NC(=O)CN1CCN(CCNC(=O)CN(C)C(=O)CN(C)C(=O)CN(C)C(=O)CN(C)C(=O)CN(C)C(=O)CN(C)C(=O)CN(C)C(=O)CN(C)C(=O)CN(C)C(=O)CN(C)C(=O)CN(C)C(=O)CN(C)C(=O)CN(C)C(=O)CN(C)C(=O)CN(C)C(=O)CC[C@H](NC(=O)CC[C@H](NC(=O)CC[C@H](NC(=O)CCCCCCCCCCCCCCCCC(=O)O)C(=O)O)C(=O)O)C(=O)O)CC1)C(=O)N[C@@H](CCCN)C(=O)N1CCC[C@H]1C(=O)N[C@@H](CCCNC(=N)N)C(=O)NCC(N)=O [Compound 21, C18DA-gGlu3-Sar15-AEPipAc-Tyr-Phe-NMeLeu-Nle-Orn-Pro-Arg-Gly-NH2] (HELM PEPTIDE1{[O=C(O)CCCCCCCCCCCCCCCCC(=O)[*:2]].[gGlu].[gGlu].[gGlu].[Sar].[Sar].[Sar].[Sar].[Sar].[Sar].[Sar].[Sar].[Sar].[Sar].[Sar].[Sar].[Sar].[Sar].[Sar].[O=C(CN1CCN(CCN[*:1])CC1)[*:2]].Y.F.[meL].[Nle].[Orn].P.R.G.[am]}$$$$V2.0) | 0.0087 | 0.0559 |
| CCCC[C@H](NC(=O)[C@H](CC(C)C)N(C)C(=O)[C@H](Cc1ccccc1)NC(=O)[C@H](Cc1ccc(O)cc1)NC(=O)CN1CCN(CCNC(=O)CN(C)C(=O)CN(C)C(=O)CN(C)C(=O)CN(C)C(=O)CN(C)C(=O)CN(C)C(=O)CN(C)C(=O)CN(C)C(=O)CN(C)C(=O)CN(C)C(=O)CN(C)C(=O)CN(C)C(=O)CC[C@H](NC(=O)CC[C@H](NC(=O)CC[C@H](NC(=O)CCCCCCCCCCCCCCCCCCC(=O)O)C(=O)O)C(=O)O)C(=O)O)CC1)C(=O)N[C@@H](CCN)C(=O)N1CCC[C@H]1C(=O)N[C@@H](CCCNC(=N)N)C(=O)NCC(N)=O [Compound 8, C20DA-gGlu3-Sar12-AEPipAc-Tyr-Phe-NMeLeu-Nle-Dbu-Pro-Arg-Gly-NH2] | 0.009 | 0.0891 |
| CCCC[C@H](NC(=O)[C@H](CC(C)C)N(C)C(=O)[C@H](Cc1ccccc1)NC(=O)[C@H](Cc1ccc(O)cc1)NC(=O)CN1CCN(CCNC(=O)CN(C)C(=O)CN(C)C(=O)CN(C)C(=O)CN(C)C(=O)CN(C)C(=O)CN(C)C(=O)CN(C)C(=O)CN(C)C(=O)CN(C)C(=O)CN(C)C(=O)CN(C)C(=O)CN(C)C(=O)CN(C)C(=O)CN(C)C(=O)CN(C)C(=O)CC[C@H](NC(=O)CC[C@H](NC(=O)CC[C@H](NC(=O)CCCCCCCCCCCCCCCCCCC(=O)O)C(=O)O)C(=O)O)C(=O)O)CC1)C(=O)N[C@@H](CCCNC(=N)N)C(=O)N1CCC[C@H]1C(=O)N[C@@H](CCCNC(=N)N)C(=O)NCC(N)=O [Compound 9, C20DA-gGlu3-Sar15-AEPipAc-Tyr-Phe-NMeLeu-Nle-Arg-Pro-Arg-Gly-NH2] (HELM PEPTIDE1{[O=C(O)CCCCCCCCCCCCCCCCCCC(=O)[*:2]].[gGlu].[gGlu].[gGlu].[Sar].[Sar].[Sar].[Sar].[Sar].[Sar].[Sar].[Sar].[Sar].[Sar].[Sar].[Sar].[Sar].[Sar].[Sar].[O=C(CN1CCN(CCN[*:1])CC1)[*:2]].Y.F.[meL].[Nle].R.P.R.G.[am]}$$$$V2.0) | 0.0058 | 0.0583 |
| CCCC[C@H](NC(=O)[C@H](CC(C)C)N(C)C(=O)[C@H](Cc1ccccc1)NC(=O)[C@H](Cc1ccc(O)cc1)NC(=O)CN1CCN(CCNC(=O)CN(C)C(=O)CN(C)C(=O)CN(C)C(=O)CN(C)C(=O)CN(C)C(=O)CN(C)C(=O)CN(C)C(=O)CN(C)C(=O)CN(C)C(=O)CC[C@H](NC(=O)CC[C@H](NC(=O)CC[C@H](NC(=O)CCCCCCCCCCCCCCCCC(=O)O)C(=O)O)C(=O)O)C(=O)O)CC1)C(=O)N[C@@H](CCN)C(=O)N(C)[C@@H](C)C(=O)N[C@@H](CCCNC(=N)N)C(=O)NCC(N)=O [Compound 28, C18DA-gGlu3-Sar9-AEPipAc-Tyr-Phe-NMeLeu-Nle-Dbu-NMeAla-Arg-Gly-NH2] (HELM PEPTIDE1{[O=C(O)CCCCCCCCCCCCCCCCC(=O)[*:2]].[gGlu].[gGlu].[gGlu].[Sar].[Sar].[Sar].[Sar].[Sar].[Sar].[Sar].[Sar].[Sar].[O=C(CN1CCN(CCN[*:1])CC1)[*:2]].Y.F.[meL].[Nle].[Dab].[meA].R.G.[am]}$$$$V2.0) | 0.0108 | 0.0562 |
| CCCC[C@H](NC(=O)[C@H](CC(C)C)N(C)C(=O)[C@H](Cc1ccccc1)NC(=O)[C@H](Cc1ccc(O)cc1)NC(=O)CN1CCN(CCNC(=O)CN(C)C(=O)CN(C)C(=O)CN(C)C(=O)CN(C)C(=O)CN(C)C(=O)CN(C)C(=O)CN(C)C(=O)CN(C)C(=O)CN(C)C(=O)CN(C)C(=O)CN(C)C(=O)CN(C)C(=O)CN(C)C(=O)CN(C)C(=O)CN(C)C(=O)CC[C@H](NC(=O)CC[C@H](NC(=O)CC[C@H](NC(=O)CCCCCCCCCCCCCCCCCCC(=O)O)C(=O)O)C(=O)O)C(=O)O)CC1)C(=O)N[C@@H](CCCNC(=N)N)C(=O)N(C)[C@@H](C)C(=O)N[C@@H](CCCNC(=N)N)C(=O)NCC(N)=O [Compound 10, C20DA-gGlu3-Sar15-AEPipAc-Tyr-Phe-NMeLeu-Nle-Arg-NMeAla-Arg-Gly-NH2] (HELM PEPTIDE1{[O=C(O)CCCCCCCCCCCCCCCCCCC(=O)[*:2]].[gGlu].[gGlu].[gGlu].[Sar].[Sar].[Sar].[Sar].[Sar].[Sar].[Sar].[Sar].[Sar].[Sar].[Sar].[Sar].[Sar].[Sar].[Sar].[O=C(CN1CCN(CCN[*:1])CC1)[*:2]].Y.F.[meL].[Nle].R.[meA].R.G.[am]}$$$$V2.0) | 0.0098 | 0.204 |
